For data set [1] the following is noted: 20° C., cited from earlier work.
The conditions of data set [2]: 20° C.; cited from earlier work.
How the values of data set [3] were obtained: A formulation comprising imazapic, benzyl alcohol and Tween-20 as detailed in Table 1 was prepared by (i) adding benzyl alcohol to a reactor; adding Tween-20 while mixing; (iii) gradually adding imazapic and continue mixing until the solution obtained is clear; (iv) discharging said solution from the reactor; and (v) filtering the solution using a 5 μm filter.

The source of these data is patent US20240147998A1, “HERBICIDAL COMPOSITIONS COMPRISING IMIDAZOLINONE-BASED ACETOLACTATE SYNTHASE INHIBITORS AND USES THEREOF” (Adama Agan Ltd., priority 2021, published 2024).

Where two headings read alike, the source gives them in different places. A value given as a limit tells only on which side of the number the result lay.

As to `CC(C)N(C)S(=O)(=O)NC(=O)c1cc(-n2c(=O)cc(C(F)(F)F)n(C)c2=O)c(F)cc1Cl` [saflufenacil, 2-chloro-5-[3,6-dihydro-3-methyl-2,6-dioxo-4-(trifluoromethyl)-1-(2H)pyrimidinyl]-4-fluoro-N-[[methyl(1-methylethyl)amino]sulfonyl]benzamide], in data set [1] (pH 5), the solubility in water is recorded as 0.0025 g/100 mL. Moreover, the solubility in water in data set [1] (pH 7) is 0.21 g/100 mL. Moreover, in data set [2], the “solubility in isopropyl alcohol” value is listed as 0.25 g/100 mL, the solubility in methanol is given as 2.98 g/100 mL and the solubility in octanol was < 0.01 g/100 mL.

As for `Cc1cnc(C2=NC(=O)C(C)(C(C)C)N2)c(C(=O)O)c1` (stereo not drawn) [imazapic], the “solubility in organic solvents suitable for agricultural applications” value in data set [3] was “dissolve”.
